Assay results from patent US7964724B2, “Chiral cis-imidazolines” (Hoffmann-La Roche Inc., priority 2004, dated 2011).
Structures can show the parent of a compound that is named as a salt.

Molecular target: interaction between p53 and MDM2 proteins (recombinant GST-tagged MDM2 / biotinylated p53-peptide) (Homo sapiens, UniProt Q00987)
Assay: HTRF assay of inhibition of the p53-MDM2 interaction (In Vitro Activity Assay)
Format: binding
Description: The ability of the compounds to inhibit the interaction between p53 and MDM2 proteins was measured by an HTRF (homogeneous time-resolved fluorescence) assay in which recombinant GST-tagged MDM2 binds to a peptide that resembles the MDM2-interacting region of p53 (Lane et al.). Binding of GST-MDM2 protein and p53-peptide (biotinylated on its N-terminal end) is registered by the FRET (fluorescence resonance energy transfer) between Europium (Eu)-labeled anti-GST antibody and streptavidin-conjugated Allophycocyanin (APC). Test is performed in black flat-bottom 384-well plates (Costar) in a total volume of 40 uL containing: 90 nM biotinylate peptide, 160 ng/ml GST-MDM2, 20 nM streptavidin-APC (PerkinElmerWallac), 2 nM Eu-labeled anti-GST-antibody (PerkinElmerWallac), 0.2% bovine serum albumin (BSA), 1 mM dithiothreitol (DTT) and 20 mM […] (TBS) buffer as follows: Add 10 uL of GST-MDM2 (640 ng/ml working solution) in reaction buffer to each well. Add 10 uL dilution compounds (1:5 dilution in reaction buffer) to each well, mix by shaking, Add 20 uL biotinylated p53 peptide (180 nM working solution) in reaction buffer to each well and mix on shaker. Incubate at 37° C. for 1 h. Add 20 uL streptavidin-APC and Eu-anti-GST antibody mixture (6 nM Eu-anti-GST and 60 nM streptavidin-APC working solution) in TBS buffer with 0.2% BSA, shake at room temperature for 30 minutes and read using a TRF-capable plate reader at 665 and 615 nm (Victor 5, Perkin ElmerWallac). If not specified, the reagents were purchased from Sigma Chemical Co.

Sequence of interaction between p53 and MDM2 proteins (recombinant GST-tagged MDM2 / biotinylated p53-peptide) (Q00987 whole entry): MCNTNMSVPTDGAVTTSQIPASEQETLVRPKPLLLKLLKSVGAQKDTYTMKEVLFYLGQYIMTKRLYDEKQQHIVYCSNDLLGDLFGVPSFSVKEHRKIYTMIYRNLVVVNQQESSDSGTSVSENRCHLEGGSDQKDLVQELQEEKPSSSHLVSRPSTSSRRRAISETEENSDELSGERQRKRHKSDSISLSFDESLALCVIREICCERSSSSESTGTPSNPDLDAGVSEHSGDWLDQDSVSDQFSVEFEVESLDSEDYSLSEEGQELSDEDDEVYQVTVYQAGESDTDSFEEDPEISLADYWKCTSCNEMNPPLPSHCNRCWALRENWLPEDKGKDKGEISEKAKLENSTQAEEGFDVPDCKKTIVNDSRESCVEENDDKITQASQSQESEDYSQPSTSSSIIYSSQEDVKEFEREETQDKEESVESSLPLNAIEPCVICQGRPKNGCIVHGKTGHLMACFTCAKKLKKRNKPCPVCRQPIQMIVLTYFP

IC50 | Structure (SMILES)
60 nM | CCOc1cc(C(C)(C)C)ccc1C1=N[C@@H](c2ccc(F)cc2)[C@@H](c2ccc(F)cc2)N1C(=O)N1CCN(CCS(C)(=O)=O)CC1 [Example 26, [(4S,5R)-2-(4-tert-Butyl-2-ethoxy-phenyl)-4,5-bis-(4-fluoro-phenyl)-4,5-dihydro-imidazol-1-yl]-[4-(2-methanesulfonyl-ethyl)-piperazin-1-yl]-methanone hydrochloride]
3100 nM | CCOc1cc(C(C)(C)C)ccc1C1=N[C@@H](c2ccc(F)cc2)[C@@H](c2ccc(F)cc2)N1C(=O)N1CCNC(=O)C1 [Example 27, 4-[(4S,5R)-2-(4-tert-Butyl-2-ethoxy-phenyl)-4,5-bis-(4-fluoro-phenyl)-4,5-dihydro-imidazole-1-carbonyl]-piperazin-2-one hydrochloride]
11 nM | C#Cc1ccc([C@@H]2[C@H](c3ccc(C#C)cc3)N=C(c3ccc(C(C)(C)C)cc3OCC)N2C(=O)N2CCN(CCS(C)(=O)=O)CC2)cc1 [Example 35, [(4S,5R)-2-(4-tert-Butyl-2-ethoxy-phenyl)-4,5-bis-(4-ethynyl-phenyl)-4,5-dihydro-imidazol-1-yl]-[4-(2-methanesulfonyl-ethyl)-piperazin-1-yl]-methanone hydrochloride]
24 nM | CCOc1cc(C(C)(C)C)ccc1C1=N[C@@H](c2ccc(Cl)cc2)[C@@H](c2ccc(Cl)cc2)N1C(=O)N1CCC(N2CCCC2)CC1 [Example 74, [(4S,5R)-2-(4-tert-Butyl-2-ethoxy-phenyl)-4,5-bis-(4-chloro-phenyl)-4,5-dihydro-imidazol-1-yl]-(4-pyrrolidin-1-yl-piperidin-1-yl)-methanone hydrochloride]
